The values that follow come from patent US7879857B2, “6-substituted 2-quinolinones and 2-quinoxalinones as poly (adp-ribose) polymerase inhibitors” (Janssen Pharmaceutica NV, priority 2003, dated 2011).

For series [1] the following is noted: rabbits, cited from earlier work.
For series [2] the following is noted: rats with hapten-induced colitis; cited from earlier work.
The target of series [3] is T1, PARP-1 enzyme (Homo sapiens, UniProt P09874).
T1 construct: made in house
Kind of series: In vitro Scintillation Proximity Assay (SPA) for PARP-1 inhibitory activity. It is filed as biochemical. The note with it: [3H]-NAD+ as ADP-ribosyl donor, biotinylated histones, nicked DNA; read-out: In vitro SPA pIC50 (converted). Here is the method: Pharmacological Example In Vitro Scintillation Proximity Assay (SPA) for PARP-1 Inhibitory Activity
Compounds of the present invention were tested in an in vitro assay based on SPA technology (proprietary to Amersham Phannacia Biotech).
In principle, the assay relies upon the well established SPA technology for the detection of poly(ADP-ribosyl)ation of biotinylated target proteins, i.e histones. This ribosylation is induced using nicked DNA activated PARP-1 enzyme and [^3H]-nicotinamide adenine dinucleotide ([^3H]-NAD^+) as ADP-ribosyl donor.
As inducer of PARP-1 enzyme activity, nicked DNA was prepared. For this, 25 mg of DNA (supplier: Sigma) was dissolved in 25 ml DNAse buffer (10 mM Tris-HCI, pH 7.4; 0.5 mg/ml Bovine Serum Albumine (BSA); 5 MM MgCl2.6H2O and 1 mM KCl) to which 50 μl DNAse solution (1 mg/ml in 0.15 M NaCl) was added. After an incubation of 90 min. at 37° C., the reaction was terminated by adding 1.45 g NaCl, followed by a further incubation at 58° C. for 15 min. The reaction mixture was cooled on ice and dialysed at 4° C. for respectively 1.5 and 2 hours against 1.51 of 0.2 M KCl, and twice against 1.51 of 0.01 M KCl for 1.5 and 2 h respectively. The mixture was aliquoted and stored at −20° C. Histones (1 mg/ml, type II-A, supplier: Sigma) were biotinylated using the biotinylation kit of Amersham and stored aliquoted at −20° C. A stock solution of 100 mg/ml SPA poly(vinyl toluene) (PVT) beads (supplier: Amersham) was made in PBS. A stock solution of [^3H]-NAD^+ was made by adding 120 μl of [^3H]-NAD^+ (0.1 mCi/ml, supplier: NEN) to 6 ml incubation buffer (50 mM Tris/HCl, pH 8; 0.2 mM DTT; 4 mM MgCl2). A solution of 4 mM NAD^+ (supplier: Roche) was made in incubation buffer (from a 100 mM stock solution in water stored at −20° C.). The PARP-1 enzyme was produced using art known techniques, i.e. cloning and expression of the protein starting from human liver cDNA. Information concerning the used protein sequence of the PARP-1 enzyme including literature references can be found in the Swiss-Prot database under primary accession number P09874. Biotinylated histones and PVT-SPA beads were mixed and pre-incubated for 30 min. at room temperature. PARP-1 enzyme (concentration was lot dependent) was mixed with the nicked DNA and the mixture was pre-incubated for 30 min. at 4° C. Equal parts of this histones/PVT-SPA beads solution and PARP-1 enzyme/DNA solution were mixed and 75 μl of this mixture together with 1 μl of compound in DMSO and 25 μl of [^3H]-NAD^+ was added per well into a 96-well microtiterplate. The final concentrations in the incubation mixture were 2 μg/ml for the biotinylated histones, 2 mg/ml for the PVT-SPA beads, 2 μg/ml for the nicked DNA and between 5-10 μg/ml for the PARP-1 enzyme. After incubation of the mixture for 15 min. at room temperature, the reaction was terminated by adding 100 μl of 4 mM NAD^+ in incubation buffer (final concentration 2 mM) and plates were mixed.
The beads were allowed to sediment for at least 15 min. and plates transferred to a TopCountNXTT™ (Packard) for scintillation counting, values were expressed as counts per minute (cpm). For each experiment, controls (containing PARP-1 enzyme and DMSO without compound), a blank incubation (containing DMSO but no PARP-1 enzyme or compound) and samples (containing PARP-1 enzyme and compound dissolved in DMSO) were run in parallel. All compounds tested were dissolved and eventually further diluted in DMSO. […] The control sample represented maximal PARP-1 enzyme activity. For each sample, the amount of cpm was expressed as a percentage of the mean cpm value of the controls. When appropriate, IC50-values (concentration of the drug, needed to reduce the PARP-1 enzyme activity to 50% of the control) were computed using linear interpolation between the experimental points just above and below the 50% level. Herein the effects of test compounds are expressed as pIC50(the negative log value of the IC50-value). […]
On the technique in general: Scintillation proximity formats need no separation of bound from free tracer.

The target of series [4] is T1, PARP-1 enzyme. Kind of series: In vitro filtration assay for PARP-1 inhibitory activity. The class given is biochemical. The note with it: [32P]-NAD as ADP-ribosyl donor, histones, nicked DNA; read-out: In vitro filtration assay pIC50 (converted). On the procedure:
In Vitro Filtration Assay for PARP-1 Inhibitory Activity
Compounds of the present invention were tested in an in vitro filtration assay assessing PARP-1 activity (triggered in the presence of nicked DNA) by means of its histone poly (ADP-ribosyl)ation activity using [^32P]-NAD as ADP-ribosyl donor. The radioactive ribosylated histones were precipitated by trichIoroacetic acid (TCA) in 96-well filterplates and the incorporated [^32P] measured using a scintillation counter
A mixture of histones (stock solution: 5 mg/ml in H2O), NAD^+ (stock solution: 100 mM in H2O), and [^32P]-NAD^+ in incubation buffer (50 mM Tris/HCl, pH 8; 0.2 mM DTT; 4 mM MgCl2) was made. A mixture of the PARP-1 enzyme (5-10 μg/ml) and nicked DNA was also made. The nicked DNA was prepared as described in the in vitro SPA for PARP-1 inhibitory activity. Seventy-five μl of the PARP-1 enzyme/DNA mixture together with 1 μl of compound in DMSO and 25 μl of histones-NAD^+/[^32P]-NAD^+ mixture was added per well of a 96-well filterplate (0.45 μm, supplier Millipore). The final concentrations in the incubation mixture were 2 μg/ml for the histones, 0.1 mM for the NAD^+, […] (0.5 μC) for the [^32P]-NAD^+ and 2 μg/ml for the nicked DNA. Plates were incubated for 15 min. at room temperature and the reaction was terminated by the addition of 10 μl ice cold 100% TCA followed by the addition of 10 μl ice-cold BSA solution (1% in H2O). The protein fraction was allowed to precipitate for 10 min. at 4° C. and plates were vacuum filtered. The plates were subsequently washed with, for each well, 1 ml of 10% ice cold TCA, 1 ml of 5% ice cold TCA and 1 ml of 5% TCA at room temperature. Finally 100 μl of scintillation solution (Microscint 40, Packard) was added to each well and the plates were transferred to a TopCountNXT™ (supplier: Packard) for scintillation counting and values were expressed as counts per minute (cpm). For each experiment, controls (containing PARP-1 enzyme and DMSO without compound), a blank incubation (containing DMSO but no PARP-1 enzyme or compound) and samples (containing PARP-1 enzyme and compound dissolved in DMSO) were run in parallel. All compounds tested were dissolved and eventually further diluted in DMSO. […] The control sample represented maximal PARP-1 enzyme activity. For each sample, the amount of cpm was expressed as a percentage of the mean cpm value of the controls. When appropriate, IC50-values (concentration of the drug, needed to reduce the PARP-1 enzyme activity to 50% of the control) were computed using linear interpolation between the experimental points just above and below the 50% level. Herein the effects of test compounds are expressed as pIC50 (the negative log value of the IC50-value). As a reference compound, 4-amino-1,8-naphthalimide was included to validate the filtration assay.

Structures are written as SMILES.

T1 sequence (P09874 whole entry): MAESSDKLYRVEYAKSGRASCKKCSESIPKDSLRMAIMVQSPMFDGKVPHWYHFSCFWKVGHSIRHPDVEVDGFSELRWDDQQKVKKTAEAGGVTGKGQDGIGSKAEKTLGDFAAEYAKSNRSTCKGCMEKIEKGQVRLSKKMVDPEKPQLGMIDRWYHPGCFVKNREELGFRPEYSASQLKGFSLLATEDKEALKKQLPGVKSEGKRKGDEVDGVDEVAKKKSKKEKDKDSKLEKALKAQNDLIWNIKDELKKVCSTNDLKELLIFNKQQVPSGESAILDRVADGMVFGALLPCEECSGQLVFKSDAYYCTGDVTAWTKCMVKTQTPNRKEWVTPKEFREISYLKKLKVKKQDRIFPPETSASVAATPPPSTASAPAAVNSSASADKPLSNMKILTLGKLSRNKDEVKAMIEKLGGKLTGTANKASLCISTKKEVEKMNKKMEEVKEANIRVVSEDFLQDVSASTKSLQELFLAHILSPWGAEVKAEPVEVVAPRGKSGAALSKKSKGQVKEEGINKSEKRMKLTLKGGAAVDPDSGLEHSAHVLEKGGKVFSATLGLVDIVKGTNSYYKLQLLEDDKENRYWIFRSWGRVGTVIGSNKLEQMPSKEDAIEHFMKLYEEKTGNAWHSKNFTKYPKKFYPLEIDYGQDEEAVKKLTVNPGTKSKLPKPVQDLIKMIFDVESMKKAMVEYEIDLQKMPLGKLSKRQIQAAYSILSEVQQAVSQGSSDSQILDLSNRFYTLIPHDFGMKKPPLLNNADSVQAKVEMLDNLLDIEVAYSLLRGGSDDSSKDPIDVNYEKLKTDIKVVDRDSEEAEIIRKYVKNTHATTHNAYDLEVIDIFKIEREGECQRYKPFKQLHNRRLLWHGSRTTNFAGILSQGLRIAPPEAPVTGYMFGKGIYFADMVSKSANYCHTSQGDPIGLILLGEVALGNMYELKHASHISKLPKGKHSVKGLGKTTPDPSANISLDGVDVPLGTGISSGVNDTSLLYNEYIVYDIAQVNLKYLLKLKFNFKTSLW

For `Oc1cccc2c(O)nccc12` [1,5-dihydroxyisoquinoline], in series [1] (single injection 1 mg/kg), the “reduction in infarct size” value was 38-48%.
`NC(=O)c1cccc(N)c1` [3-amino-benzamide]: the “effect on inflammatory response, morphology and energetic status of the distal colon” value in series [2] is “reduced the inflammatory response and restored the morphology and the energetic status of the distal colon”. The “reduction in infarct size in the heart” value in series [1] (single injection 10 mg/kg, one minute before occlusion or one minute before reperfusion) was 32-42%.
The compound `CCc1nc2cc(C(NC=O)C(C)C)ccc2[nH]c1=O` (stereo not shown) [Compound 1] returned a melting point of 204 °C. Also, the IC50 in series [3] was 221 nM.
For the compound `Cc1cc2cc(C(C(C)C)n3ccnc3)ccc2[nH]c1=O` (stereo not shown) [Compound 2], the melting point was determined as 211.4 °C. Further, in series [3], the IC50 is 522 nM. In addition, the IC50 in series [4] is 5350 nM.
The matching figures for `CCc1cc2cc(C(=O)CN(C)C)ccc2[nH]c1=O` [Compound 3]: 180 °C, 259 nM and 2590 nM.
Consider `Cc1cc2cc(C(CCN(C)C)c3ccco3)ccc2[nH]c1=O` (stereo not shown) [Compound 4], for which the values for the IC50 in series [3] and in series [4] were 1040 nM and 7570 nM, respectively.
Turning to `CCc1cc2cc(C(O)C(CC)CC)ccc2[nH]c1=O` (stereo not shown) [Compound 5], the IC50 is 156 nM in series [3] and 638 nM in series [4].
`Cc1cc2cc(C(CCc3ccccc3)NC=O)ccc2[nH]c1=O` (stereo not shown) [Compound 6] returned a melting point of 221.3 °C. For the same compound, in series [3], the IC50 is 769 nM. Further, in series [4], the IC50 was 10000 nM.
`CCc1cc2cc(C(O)CN(C)C)ccc2[nH]c1=O` (stereo not shown) [Compound 7] yielded a melting point of 131 °C. Moreover, in series [3], the IC50 is 212 nM. Further, in series [4], the IC50 is 773 nM.
For the compound `CCOC(=O)Cc1ccc2[nH]c(=O)c(CC)nc2c1` [Compound 8], the IC50 in series [3] is 975 nM.
As to `CCc1nc2cc(C(=O)C(C)C)ccc2[nH]c1=O` [Compound 9], in series [3], the IC50 is 743 nM.
As for `CCc1nc2cc(C(NCCN3CCC(C(=O)c4ccc(F)cc4)CC3)C(C)C)ccc2[nH]c1=O` (stereo not shown) [Compound 10], in series [3], the IC50 is 740 nM.
On to `CCc1cc2cc(CCNCCCN3CCCCC3)ccc2[nH]c1=O` [Compound 11], for which the IC50 in series [3] is 327 nM.
Consider `CCc1cc2cc(CCNCCCN(C)Cc3ccccc3)ccc2[nH]c1=O` [Compound 12], for which the IC50 in series [3] is 687 nM.
As for `CCc1nc2cc(C(NCCCN3CCCCC3)C(C)C)ccc2[nH]c1=O` (stereo not shown) [Compound 13], in series [3], the IC50 was 368 nM.
For `CCc1nc2cc(C(NCCCN(C)Cc3ccccc3)C(C)C)ccc2[nH]c1=O` (stereo not shown) [Compound 14], in series [3], the IC50 was 499 nM.
With `Cc1cc2cc(C(NCCCN3CCCCC3)C(C)C)ccc2[nH]c1=O` (stereo not shown) [Compound 15], the IC50 in series [3] is 1260 nM; in series [4] it was 3620 nM.
With `Cc1cc2cc(C(O)(CCN(C)C)c3ccccn3)ccc2[nH]c1=O` (stereo not shown) [Compound 16], the IC50 in series [3] is 470 nM; in series [4] it was 2160 nM.
As for `CCc1cc2cc(C(O)C3CC=CCC3)ccc2[nH]c1=O` (stereo not shown) [Compound 17], the IC50 was 198 nM in series [3] and 1470 nM in series [4].
In the case of `Cc1cc2cc(C(C)NC=O)ccc2[nH]c1=O` (stereo not shown) [Compound 18], the IC50 in series [3] is 1020 nM; in series [4], 6370 nM.
In the case of `CCc1nc2cc(C(O)C(C)C)ccc2[nH]c1=O` (stereo not shown) [Compound 19], the IC50 in series [3] is 746 nM.
Take `CCc1nc2cc(C(C(C)C)n3cncn3)ccc2[nH]c1=O` (stereo not shown) [Compound 20, 3-ethyl-6-[2-methyl-1-(1H-1,2,4-triazol-1-yl)propyl]-2(1H)-quinoxalinone]: the figures for the IC50 in series [3] and in series [4] were 438 nM and 2280 nM, respectively.
With `CCc1nc2cc(C(C(C)C)n3ccnc3)ccc2[nH]c1=O` (stereo not shown) [Compound 21, 3-ethyl-6-[1-(1H-imidazol-1-yl)-2-methylpropyl]-2(1H)-quinoxalinone], the IC50 in series [3] was 227 nM; in series [4], 1100 nM.
For the compound `CC(C)C(c1ccc2[nH]c(=O)c(-c3cccs3)nc2c1)n1cncn1` (stereo not shown) [Compound 22, 6-[2-methyl-1-(1H-1,2,4-triazol-1-yl)propyl]-3-(2-thienyl)-2(1H)-quinoxalinone], the IC50 in series [3] was 838 nM; in series [4], 4330 nM.
Regarding `CC(C)C(c1ccc2[nH]c(=O)c(-c3ccsc3)nc2c1)n1cncn1` (stereo not shown) [Compound 23, 6-[2-methyl-1-(1H-1,2,4-triazol-1-yl)propyl]-3-(thienyl)-2(1H)-quinoxalinone], the IC50 in series [3] was 1430 nM; in series [4], 7130 nM.
The matching figures for `CC(C)C(c1ccc2[nH]c(=O)c(-c3ccsc3)nc2c1)n1ccnc1` (stereo not shown) [Compound 24, 6-[1-(1H-imidazol-1-yl)-2-methylpropyl]-3-(3-thienyl)-2(1H)-quinoxalinone]: 561 nM and 4860 nM.
On to `CCCCC(c1ccc2[nH]c(=O)c(C)nc2c1)n1ccnc1` (stereo not shown) [Compound 25, 6-[1-(1H-imidazol-1-yl)pentyl]-3-methyl-2(1H)-quinoxalinone], for which the IC50 in series [3] was 1000 nM; in series [4], 4630 nM.

A word on the melting point: it is the temperature, or range, at which the solid turns liquid.
